In PMC6222789, “CF3-Substituted Mollugin 2-(4-Morpholinyl)-ethyl ester as a Potential Anti-inflammatory Agent with Improved Aqueous Solubility and Metabolic Stability” (Molecules : A Journal of Synthetic Chemistry and Natural …, 2018):

What was measured:
[1] = test system: TNF-α-induced adhesion of U937 monocytic cells to HT-29 cells; assay: TNF-α-induced colonic epithelial cell adhesion assay; format: cell-based, human; conditions: for inhibition of TNF-α-induced monocyte-epithelial adhesion: 10 μM; for inhibition at 10 µM: Homo sapiens, Epithelial cell, U937 adhesion to HT-29 cells, TNF-α-induced
Description: (§1) Synthesized mollugin derivatives were subjected to the colonic epithelial cell adhesion assay, which mimics the initial stage of colon inflammation. The inhibition of TNF-α-induced or IL-6-induced adhesion of U937 monocytic cells to HT-29 cells in 10 μM solution of synthesized molecules was measured, and the results are summarized in Table 1 and Table 2. Mesalazine (2), a commercially available medication for the treatment of IBD, and mollugin were chosen as assay positive controls.
(§2) HT-29 human colonic epithelial cells and U937 human pre-monocytic cells were grown in RPMI 1640 medium supplemented with 10% FBS, 100 IU/mL penicillin, and 100 µg/mL streptomycin in a humidified incubator under 5% CO2/95% air.
(§3) U937 monocytic cell adhesion to colonic epithelial cells was evaluated using human U937 pre-monocytic cells, which were prelabeled with 2′,7′-bis(2-carboxyethyl)-5(6)-carboxyfluorescein acetoxymethyl ester (BCECF/AM, 10 μg/mL) for 1 h at 37 °C. HT-29 cells cultured in 24-well plates were pretreated with test compound, 5-ASA, or tofacitinib for 1 h prior to incubation with TNF-α (10 ng/mL) and IL-6 (5 ng/mL) for an additional 3 h. Cells were then co-incubated with BCECF/AM-prelabeled U937 cells (1 × 10^6 cells/well) for 30 min at 37 °C. Non-adhering U937 cells were removed, and the HT-29 cells and adherent U937 cells were washed twice with PBS. Images were captured and processed with a Nikon ECLIPSE TE2000-U microscope and NIS-Elements F software (Nikon, Tokyo, Japan). For quantitative analysis, other sets of cells were lysed in 0.1% Triton X-100 in Tris (0.1 M), and the fluorescence was measured using a fluorescence-detecting microplate reader (Promega , Madison, WI, USA) at […]. Experiments were performed in triplicate and repeated at least three times independently.

[2] = test system: IL-6-induced adhesion of U937 monocytic cells to HT-29 cells; assay: IL-6-induced colonic epithelial cell adhesion assay; format: cell-based, human; conditions: for inhibition of IL-6-induced monocyte-epithelial adhesion: 10 μM; for inhibition at 10 µM: Homo sapiens, Epithelial cell, U937 adhesion to HT-29 cells, IL-6-induced
Description: as §1, §2, §3

[3] = Metabolic stability, rat liver microsomes; format: in vitro ADME; conditions: 30 min, 1 μM
Description: (§4) Pooled human liver microsomes (150 donor) and dog, rat, mouse liver microsomes were obtained from BD Gentest Co. (Woburn, MA, USA). NADPH regeneration system was obtained from Promega. S-Mephenytoin, 4-hydroxymephenytoin, and 1’-hydroxymidazolam were purchased from Ultrafine Chemical Co. (Manchester, UK). All other chemicals and solvents were of the highest grade available. The metabolic stability assay was performed by incubation of human or selected animal liver microsomes (most often dog, rat and mouse), at 37 °C with a test compound at a final concentration of 1 μM, in the presence of 0.5 mg/mL microsomal protein and NADPH regeneration system, in a total volume of 100 μL of 100 mM phosphate buffer, pH 7.4. The incubation was started by the addition of NADPH regeneration system and terminated with 40 μL of ice-cold acetonitrile at 0 and 30 min. Precipitated proteins were removed by centrifugation at 10,000× g for 5 min at 4 °C. Aliquots of the supernatant were injected onto an LC-MS/MS system. Incubations terminated prior to the addition of NADPH regeneration system (time point 0 min) were used as standards, defined as 100%. Percent of the parent compound remaining was calculated by comparing peak area.

[4] = Metabolic stability, mouse liver microsomes; format: in vitro ADME; conditions: 30 min, 1 μM
Description: as §4

[5] = Metabolic stability, human liver microsomes; format: in vitro ADME; conditions: 1 μM
Description: as §4

[6] = Metabolic stability, dog liver microsomes; format: in vitro ADME; conditions: 30 min, 1 μM
Description: as §4

[7] = Plasma stability, rat plasma; format: in vitro ADME; conditions: 2 h, 37 °C, 1 μM
Description: (§5) The plasma stability assay was performed by incubation of human or rat plasma with a test compound in a final concentration of 1 μM for 120 min at 37 °C. The incubation was terminated by addition of 40 μL of ice-cold acetonitrile and vortexing for 5 min. The precipitated proteins were removed by centrifugation at 14,000× g for 5 min at 4 °C. Aliquots of the supernatant were injected onto a Shimadzu Nexera XR LC system. Percentages of the parent compound remaining were calculated by comparing peak areas using the Xcalibur software (version 1.6.1, Waltham, MA, USA).

[8] = Plasma stability, human plasma; format: in vitro ADME; conditions: 37 °C, 1 μM
Description: as §5

| Structure (SMILES) | inhibition of TNF-α-induced monocyte-epithelial adhesion [1] | inhibition at 10 µM [1] [%] | inhibition of IL-6-induced monocyte-epithelial adhesion [2] | inhibition at 10 µM [2] [%] | Metabolic Stability (% Remain, 30 min) Rat [3] [% Remain] | Metabolic Stability (% Remain, 30 min) Mouse [4] [% Remain] | Metabolic Stability (% Remain, 30 min) Human [5] [% Remain] | Metabolic Stability (% Remain, 30 min) Dog [6] [% Remain] | Plasma Stability (% Remain, 2 h) Rat [7] [% Remain] | Plasma Stability (% Remain, 2 h) Human [8] [% Remain] |
| --- | --- | --- | --- | --- | --- | --- | --- | --- | --- | --- |
| CC1(C)C=Cc2c(C(=O)OCCN3CCCC3)c(O)c3ccccc3c2O1 [6c, 2-(Pyrrolidin-1-yl)ethyl 6-hydroxy-2,2-dimethyl-2H-benzo[h]chromene-5-carboxylate] | good % inhibition | 39.7 ± 5.7 | reduced % inhibition | 12.4 ± 2.1 |  |  |  |  |  |  |
| CNC(=O)c1c2c(c3ccccc3c1O)OC(C)(C)C=C2 [6l, 6-Hydroxy-N,2,2-trimethyl-2H-benzo[h]chromene-5-carboxamide] |  | 45.4 ± 4.7 |  | 12.2 ± 4.4 | 1 | 2 | 13 | 1 |  |  |
| CN(C)CCCOC(=O)c1c2c(c3ccccc3c1O)OC(C)(C)C=C2 [6b, 3-(Dimethylamino)propyl 6-hydroxy-2,2-dimethyl-2H-benzo[h]chromene-5-carboxylate] |  | 39.6 ± 2.9 |  | 34.8 ± 4.1 | 7 | 8 | 12 | 9 |  |  |
| Cc1ccc2c3c(c(C(=O)OCCN4CCOCC4)c(O)c2c1)C=CC(C)(C)O3 [15b, 2-Morpholinoethyl 6-hydroxy-2,2,8-trimethyl-2H-benzo[h]chromene-5-carboxylate] |  | 24.9 ± 3.5 |  | 54.3 ± 6.5 | 9 | 18 | 41 | 57 | 55 | 100 |
| CC1(C)C=Cc2c(C(=O)OCCc3ccccn3)c(O)c3ccccc3c2O1 [6j, 2-(Pyridin-2-yl)ethyl 6-hydroxy-2,2-dimethyl-2H-benzo[h]chromene-5-carboxylate] |  | 43.1 ± 6.2 |  | 33.6 ± 5.9 |  |  |  |  |  |  |
| CN1CCN(C(=O)c2c3c(c4ccccc4c2O)OC(C)(C)C=C3)CC1 [6n, (6-Hydroxy-2,2-dimethyl-2H-benzo[h]chromen-5-yl)(4-methylpiperazin-1-yl)methanone] |  | 37.4 ± 3.3 |  | 34.2 ± 7.9 |  |  |  |  |  |  |
| COC(=O)c1c2c(c3ccc(C(F)(F)F)cc3c1O)OC(C)(C)C=C2 [14c, Methyl 6-hydroxy-2,2-dimethyl-8-(trifluoromethyl)-2H-benzo[h]chromene-5-carboxylate] |  | 63.2 ± 10.8 |  | 39.3 ± 5.6 | 90 | 70 | 100 | 22 | 10 | 97 |
| CCNC(=O)c1c2c(c3ccccc3c1O)OC(C)(C)C=C2 [6m, N-Ethyl-6-hydroxy-2,2-dimethyl-2H-benzo[h]chromene-5-carboxamide] |  | 38.4 ± 5.7 |  | 25.8 ± 3.4 |  |  |  |  |  |  |
| COC(=O)c1c2c(c3ccc(F)cc3c1O)OC(C)(C)C=C2 [14a, Methyl 8-fluoro-6-hydroxy-2,2-dimethyl-2H-benzo[h]chromene-5-carboxylate] |  | 36.1 ± 7.6 |  | 59.4 ± 7.4 | 78 | 82 | 52 | 52 | 2 | 39.5 |
| CC1(C)C=Cc2c(C(=O)OCCN3CCOCC3)c(O)c3ccc(F)cc3c2O1 [15d, 2-Morpholinoethyl 9-fluoro-6-hydroxy-2,2-dimethyl-2H-benzo[h]chromene-5-carboxylate] |  | 47 ± 8.9 |  | 75.6 ± 11.5 | 8 | 11 | 48 | 30 | 81 | 94 |
| CC1(C)C=Cc2c(C(N)=O)c(O)c3ccccc3c2O1 [6k, 6-Hydroxy-2,2-dimethyl-2H-benzo[h]chromene-5-carboxamide] |  | 42.6 ± 4.2 |  | 39.1 ± 4.7 | 2 | 2 | 10 | 6 |  |  |
| COC(=O)c1c2c(c3cc(F)ccc3c1O)OC(C)(C)C=C2 [14d, Methyl 9-fluoro-6-hydroxy-2,2-dimethyl-2H-benzo[h]chromene-5-carboxylate] |  | 24.9 ± 8.1 |  | 28 ± 5.6 |  |  |  |  |  |  |
| CN(C)CCOC(=O)c1c2c(c3ccccc3c1O)OC(C)(C)C=C2 [6a, 2-(Dimethylamino)ethyl 6-hydroxy-2,2-dimethyl-2H-benzo[h]chromene-5-carboxylate] |  | 38 ± 4.9 |  | 35.5 ± 4.3 | 2 | 3 | 6 | 2 |  |  |
| CCN1CCN(C(=O)c2c3c(c4ccccc4c2O)OC(C)(C)C=C3)CC1 [6o] | good % inhibition | 46.2 ± 5.4 | reduced % inhibition | 9.4 ± 2.1 |  |  |  |  |  |  |
| CC1(C)C=Cc2c(C(=O)OCCN3CCOCC3)c(O)c3cc(F)ccc3c2O1 [15a, 2-Morpholinoethyl 8-fluoro-6-hydroxy-2,2-dimethyl-2H-benzo[h]chromene-5-carboxylate] |  | 36.6 ± 9.4 |  | 61.1 ± 10.9 | 9 | 10 | 78 | 10 | 91 | 100 |
